Structures are written as SMILES.

In general, IC50 refers to the concentration at which inhibition is half-maximal.

The first assay relates to A549. The experiment in a line: Growth inhibition of human A549 cells after 48 hrs by trypan blue dye exclusion method. In kind it is functional, cell-based. The note with it: A549, 48 h.
In turn, `CC/C=C\C/C=C\C/C=C\C/C=C\C/C=C\C/C=C\CCC(=O)OCC(O)CO` (stereo unspecified) yielded an IC50 of 1500 nM. The same measure, in the same setting: to `CC/C=C\C/C=C\C/C=C\C/C=C\C/C=C\C/C=C\CCC(=O)NC(CO)CO` belongs 480 nM; to `CC/C=C\C/C=C\C/C=C\C/C=C\C/C=C\C/C=C\CCC(=O)N[C@H](C)CO`, 250 nM.

For the next assay, the system named is A549. The experiment in a line: Growth inhibition of human A549 cells at 3 uM after 48 hrs by trypan blue dye exclusion method. In kind it is functional. To be noted: A549, 48 h, read-out: GI.
Regarding `CC/C=C\C/C=C\C/C=C\C/C=C\C/C=C\C/C=C\CCC(=O)NCCNC(=O)CC/C=C\C/C=C\C/C=C\C/C=C\C/C=C\C/C=C\CC`, the inhibition of growth at 3 µM is 13%. Still for that read-out and setting: to `CC/C=C\C/C=C\C/C=C\C/C=C\C/C=C\CCCCCC(=O)OCC(O)CO` (stereo unspecified) belongs 74.5%.

On to `CC/C=C\C/C=C\C/C=C\C/C=C\C/C=C\CCCC(=O)NCCCNC`, for which the inhibition of growth at 3 µM is 67.8%. Same read-out and setting: to `CC/C=C\C/C=C\C/C=C\C/C=C\C/C=C\C/C=C\CCC(=O)NC(CO)C(=O)O` (stereo unspecified) belongs 68.7%; to `CC/C=C\C/C=C\C/C=C\C/C=C\C/C=C\C/C=C\CCC(=O)NC[C@H](O)CO`, 42.3%.

For `CC/C=C\C/C=C\C/C=C\C/C=C\C/C=C\CCCCCC(=O)NC(CO)CO`, the inhibition of growth at 3 µM came out at 97.4%. Still for that read-out and setting: under `CC/C=C\C/C=C\C/C=C\C/C=C\C/C=C\C/C=C\CCC(=O)OCC(O)CO` (stereo unspecified) stands 59.1%. Take `CC/C=C\C/C=C\C/C=C\C/C=C\C/C=C\C/C=C\CCC(=O)NC[C@@H](O)CO`: the inhibition of growth at 3 µM was found to be 48.1%. In the case of `CC/C=C\C/C=C\C/C=C\C/C=C\C/C=C\CCCCCC(=O)NCC(O)CNC(=O)CCCCC/C=C\C/C=C\C/C=C\C/C=C\C/C=C\CC`, the inhibition of growth at 3 µM came out at 97.7%. Still for that read-out and setting: under `CC/C=C\C/C=C\C/C=C\C/C=C\C/C=C\C/C=C\CCC(=O)NC(CO)CO` stands 77.4%; under `CC/C=C\C/C=C\C/C=C\C/C=C\C/C=C\CCCC(=O)OCC(O)CO` (stereo unspecified), 51.4%. Regarding `CC/C=C\C/C=C\C/C=C\C/C=C\C/C=C\CCCCCC(=O)NCCO`, the inhibition of growth at 3 µM is 96.9%. Regarding `CC/C=C\C/C=C\C/C=C\C/C=C\C/C=C\C/C=C\CCC(=O)NCC(O)CN` (stereo unspecified), the inhibition of growth at 3 µM stood at 38.3%. On the same count and under the same terms, to `CC/C=C\C/C=C\C/C=C\C/C=C\C/C=C\CCCC(=O)OCCCN(C)C` belongs 95%. Turning to `CC/C=C\C/C=C\C/C=C\C/C=C\C/C=C\CCCC(=O)NC(CO)CO`, the inhibition of growth at 3 µM was 84.2%. With `CC/C=C\C/C=C\C/C=C\C/C=C\C/C=C\CCCC(=O)NC(C)CO` (stereo unspecified), the inhibition of growth at 3 µM was found to be 98.4%. Still for that read-out and setting: to `CC/C=C\C/C=C\C/C=C\C/C=C\C/C=C\C/C=C\CCC(=O)N[C@H](C)CO` belongs 98.3%. Same read-out and setting: under `CC/C=C\C/C=C\C/C=C\C/C=C\C/C=C\CCCCCC(=O)NC[C@H](O)CO` stands 31.6%.

Turning to `CC/C=C\C/C=C\C/C=C\C/C=C\C/C=C\C/C=C\CCC(=O)NCC(O)CO` (stereo unspecified), the inhibition of growth at 3 µM was found to be 88.7%. Same read-out and setting: to `CC/C=C\C/C=C\C/C=C\C/C=C\C/C=C\C/C=C\CCC(=O)NCC(O)CNC(=O)CC/C=C\C/C=C\C/C=C\C/C=C\C/C=C\C/C=C\CC` belongs 83.8%; to `CC/C=C\C/C=C\C/C=C\C/C=C\C/C=C\CCCC(=O)NCCO`, 70.9%. Same read-out and setting: to `CC/C=C\C/C=C\C/C=C\C/C=C\C/C=C\CCCCCC(=O)NC[C@@H](O)CO` belongs 47.4%; to `CC/C=C\C/C=C\C/C=C\C/C=C\C/C=C\C/C=C\CCC(=O)NCCO`, 29.3%.

Source of the values: ChEMBL document CHEMBL3352804, “One-pot synthesis of polyunsaturated fatty acid amides with anti-proliferative properties” (Bioorg Med Chem Lett, 2014).
